Read-outs that look alike come from different tables or passages of the source.
Target: b-Raf (V600E) (Homo sapiens (Human), UniProt P15056, V600E)
Settings: read-out: b-Raf IC-50, AlphaScreen
[1] = 60 min pre-incubation, 3 hours reaction
[2] = 60 min pre-incubation, reaction 3 hours at room temperature

Chain of b-Raf (V600E) (P15056 whole entry V600E): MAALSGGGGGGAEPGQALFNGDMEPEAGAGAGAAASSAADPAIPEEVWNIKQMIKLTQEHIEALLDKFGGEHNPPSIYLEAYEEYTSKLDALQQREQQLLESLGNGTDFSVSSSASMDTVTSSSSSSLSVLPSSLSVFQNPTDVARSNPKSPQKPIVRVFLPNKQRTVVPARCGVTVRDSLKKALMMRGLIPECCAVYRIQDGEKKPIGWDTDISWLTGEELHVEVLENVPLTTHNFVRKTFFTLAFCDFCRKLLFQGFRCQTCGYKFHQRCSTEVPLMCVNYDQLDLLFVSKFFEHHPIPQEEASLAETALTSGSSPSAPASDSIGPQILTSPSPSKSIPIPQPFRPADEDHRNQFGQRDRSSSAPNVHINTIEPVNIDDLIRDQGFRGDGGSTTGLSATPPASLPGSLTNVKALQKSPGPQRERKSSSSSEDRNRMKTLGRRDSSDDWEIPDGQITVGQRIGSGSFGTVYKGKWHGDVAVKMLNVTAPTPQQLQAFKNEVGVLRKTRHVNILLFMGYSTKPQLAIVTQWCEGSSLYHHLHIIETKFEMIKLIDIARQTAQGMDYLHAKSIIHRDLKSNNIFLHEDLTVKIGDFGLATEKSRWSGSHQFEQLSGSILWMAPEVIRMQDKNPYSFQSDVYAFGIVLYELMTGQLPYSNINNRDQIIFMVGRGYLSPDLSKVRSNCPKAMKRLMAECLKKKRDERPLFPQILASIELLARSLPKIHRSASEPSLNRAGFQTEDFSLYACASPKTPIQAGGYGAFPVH

SMILES	IC50 [1] [nM]	IC50 [2] [nM]	further results
Cc1ncc(NC(=O)c2ccnc(S(C)(=O)=O)c2)cc1-c1cc(N2CCOCC2)c(OC2CCOCC2)nn1 [Example 632, N-(6-methyl-5-(5-morpholino-6-((tetrahydro-2H-pyran-4-yl)oxy)pyridazin-3-yl)pyridin-3-yl)-2-(methylsulfonyl)isonicotinamide]	7.5		
Cc1ccc(NC(=O)c2ccnc(C(C)(C)C#N)c2)cc1-c1cc(N2CCOCC2)nc(N2CCOCC2)c1 [Example 1113, 2-(2-cyanopropan-2-yl)-N-(3-(2,6-dimorpholinopyridin-4-yl)-4-methylphenyl)isonicotinamide]		1.32	
CCNc1nc(-c2cc(NC(=O)c3ccnc(C(C)(C)C#N)c3)ccc2C)cc(N2CCOC[C@@H]2C)n1 [Example 714, (S)-2-(2-cyanopropan-2-yl)-N-(3-(2-(ethylamino)-6-(3-methylmorpholino)pyrimidin-4-yl)-4-methylphenyl)isonicotinamide]	2.5		
Cc1ccc(NC(=O)c2ccnc(C(F)F)c2)cc1-c1cc(N2CCOCC2)n2nccc2n1 [Example 805, 2-(difluoromethyl)-N-(4-methyl-3-(7-morpholinopyrazolo[1,5-a]pyrimidin-5-yl)phenyl)isonicotinamide]	0.4		
Cc1ccc(NC(=O)c2ccnc(C(F)(F)F)c2)cc1-c1cc(NCCO)nc(N2CCOCC2)c1F [Example 1008, N-(3-(3-fluoro-6-((2-hydroxyethyl)amino)-2-morpholinopyridin-4-yl)-4-methylphenyl)-2-(trifluoromethyl)isonicotinamide]		13.3	
Cc1ccc(NC(=O)c2cnnc(C(F)(F)F)c2)cc1-c1cc(OC2CCOCC2)nc(N2CCOCC2)c1 [Example 1155, N-(4-methyl-3-(2-morpholino-6-((tetrahydro-2H-pyran-4-yl)oxy)pyridin-4-yl)phenyl)-6-(trifluoromethyl)pyridazine-4-carboxamide]		0.66	
Cc1ncc(NC(=O)c2ccnc(S(C)(=O)=O)c2)cc1-c1cc(NCCO)nc(N2CCOCC2)c1 [Example 1043, N-(2′-((2-hydroxyethyl)amino)-2-methyl-6′-morpholino-[3,4′-bipyridin]-5-yl)-2-(methylsulfonyl)isonicotinamide]		22.8	
CCOc1nc(-c2cc(NC(=O)c3ccnc(C(C)(F)F)c3)ccc2C)cc(N2CCOCC2)n1 [Example 761, 2-(1,1-difluoroethyl)-N-(3-(2-ethoxy-6-morpholinopyrimidin-4-yl)-4-methylphenyl)isonicotinamide]	0.9		
Cc1ncc(NC(=O)c2ccnc(C(C)C)c2)cc1-c1ccc(C#N)c(N2CCOCC2)c1 [Example 686, N-(5-(4-cyano-3-morpholinophenyl)-6-methylpyridin-3-yl)-2-isopropylisonicotinamide]	1.7		
Cc1ccc(NC(=O)c2ccnc(C(C)(C)C#N)c2)cc1-c1cc(N2CCOCC2)c(OC2CCOCC2)nn1 [Example 584, 2-(2-cyanopropan-2-yl)-N-(4-methyl-3-(5-morpholino-6-((tetrahydro-2H-pyran-4-yl)oxy)pyridazin-3-yl)phenyl)isonicotinamide]	1.2		
Cc1ncc(NC(=O)c2cccc(C(O)C(F)(F)F)c2)cc1-c1cnc(OC2CCOCC2)c(N2CCOCC2)c1 (stereo not drawn) [Example 977, N-(2-methyl-5′-morpholino-6′-((tetrahydro-2H-pyran-4-yl)oxy)[3,3′-bipyridin]-5-yl)-3-(2,2,2-trifluoro-1-hydroxyethyl)benzamide]		4.21	
Cc1ncc(NC(=O)c2ccnc(C(F)F)c2)cc1-c1cc(N2CCOCC2)n2nccc2n1 [Example 803, 2-(difluoromethyl)-N-(6-methyl-5-(7-morpholinopyrazolo[1,5-a]pyrimidin-5-yl)pyridin-3-yl)isonicotinamide]	1.9		
Cc1ccc(NC(=O)c2cccc(C(F)(F)F)c2)cc1-c1nc(N2CCOCC2)c2sccc2n1 [Example 829, N-(4-methyl-3-(4-morpholinothieno[3,2-d]pyrimidin-2-yl)phenyl)-3-(trifluoromethyl)benzamide]	0.2		
Cc1ccc(NC(=O)c2ccnc(C(C)(F)F)c2)cc1-c1cc(N2C3CCC2COC3)n(C)c(=O)c1 [Example 527, N-(3-(6-(3-oxa-8-azabicyclo[3.2.1]octan-8-yl)-1-methyl-2-oxo-1,2-dihydropyridin-4-yl)-4-methylphenyl)-2-(1,1-difluoroethyl)isonicotinamide]	5.6		
Cc1ccc(NC(=O)c2ccnc(C(C)(C)C#N)c2)cc1-c1cc(N2CCOCC2)nc(N[C@H](C)CO)n1 [Example 749, (R)-2-(2-cyanopropan-2-yl)-N-(3-(2-((1-hydroxypropan-2-yl)amino)-6-morpholinopyrimidin-4-yl)-4-methylphenyl)isonicotinamide]	1.9		
Cn1cc(-c2cc(NC(=O)c3cccc(C(F)F)c3)ccc2F)cc(N2CCOCC2)c1=O [Example 417, 3-(difluoromethyl)-N-(4-fluoro-3-(1-methyl-5-morpholino-6-oxo-1,6-dihydropyridin-3-yl)phenyl)benzamide]			IC50 (Table 2, 3 hours reaction): 3.1 nM
Cc1ccc(NC(=O)c2cccc(C(F)(F)F)c2)cc1-c1cc(N2CCOCC2)nc(OCCO)n1 [Example 40, N-(3-(2-(2-hydroxyethoxy)-6-morpholinopyrimidin-4-yl)-4-methylphenyl)-3-(trifluoromethyl)benzamide]			IC50 (Table 2, 3 hours reaction): 0.8 nM

SMILES	IC50 [1] [nM]	IC50 [2] [nM]	further results
Cc1ncc(NC(=O)c2ccnc(C(C)(C)O)c2)cc1-c1cnc(OC2CCOCC2)c(N2CCOCC2)c1 [Example 939, 2-(2-hydroxypropan-2-yl)-N-(2-methyl-5′-morpholino-6′-((tetrahydro-2H-pyran-4-yl)oxy)-[3,3′-bipyridin]-5-yl)isonicotinamide]		15.3	
CCOc1ncc(-c2cc(NC(=O)c3cnnc(C(F)(F)F)c3)cnc2C)cc1N1CCOCC1 [Example 259, N-(6′-ethoxy-2-methyl-5′-morpholino-[3,3′-bipyridin]-5-yl)-6-(trifluoromethyl)pyridazine-4-carboxamide]			IC50 (Table 2, 3 hours reaction): 3.1 nM
Cc1ccc(NC(=O)c2ccnc(C(C)(C)C#N)c2)cc1-c1cc(N2CCOCC2)nc(N[C@@H](C)CO)n1 [Example 746]	4.6		
Cc1ccc(NC(=O)c2ccnc(C3CC3)c2)cc1-c1cc(N2CCOCC2)c(=O)n(C)c1 [Example 354, 2-cyclopropyl-N-(4-methyl-3-(1-methyl-5-morpholino-6-oxo-1,6-dihydropyridin-3-yl)phenyl)isonicotinamide]			IC50 (Table 2, 3 hours reaction): 1 nM
Cc1ncc(NC(=O)c2cccc(C(F)(F)F)c2)cc1-c1cnc(O[C@H]2CC[C@H](O)CC2)c(N2CCOCC2)c1 [Example 316, N-(6′-(((1r,4r)-4-hydroxycyclohexyl)oxy)-2-methyl-5′-morpholino-[3,3′-bipyridin]-5-yl)-3-(trifluoromethyl)benzamide]			IC50 (Table 2, 3 hours reaction): 3.1 nM
Cc1ncc(NC(=O)c2ccnc(C(F)(F)F)c2)cc1-c1cc(N2CCOCC2)c(S(C)(=O)=O)nn1 [Example 921, N-(6-methyl-5-(6-(methylsulfonyl)-5-morpholinopyridazin-3-yl)pyridin-3-yl)-2-(trifluoromethyl)isonicotinamide]		7.73	
CCOc1nnc(-c2cc(NC(=O)c3ccnc(C(F)F)c3)ccc2C)cc1N1CCOCC1 [Example 562, 2-(difluoromethyl)-N-(3-(6-ethoxy-5-morpholinopyridazin-3-yl)-4-methylphenyl)isonicotinamide]	0.6		
Cc1ncc(NC(=O)c2cccc(C(F)(F)F)c2)cc1-c1cnc(O[C@H]2CC[C@@H](O)CC2)c(N2CCOCC2)c1 [Example 317, N-(6′-(((1s,4s)-4-hydroxycyclohexyl)oxy)-2-methyl-5′-morpholino-[3,3′-bipyridin]-5-yl)-3-(trifluoromethyl)benzamide]			IC50 (Table 2, 3 hours reaction): 1.6 nM
Cc1ccc(NC(=O)c2cc(CN(C)C)cc(C(F)(F)F)c2)cc1-c1cc(N2CCOCC2)c(=O)n(C)n1 [Example 661, 3-((dimethylamino)methyl)-N-(4-methyl-3-(1-methyl-5-morpholino-6-oxo-1,6-dihydropyridazin-3-yl)phenyl)-5-(trifluoromethyl)benzamide]	4.3		
CCOc1nnc(-c2cc(NC(=O)c3ccnc(C(C)(F)F)c3)cnc2C)cc1N1CCOCC1 [Example 620, 2-(1,1-difluoroethyl)-N-(5-(6-ethoxy-5-morpholinopyridazin-3-yl)-6-methylpyridin-3-yl)isonicotinamide]	1.9		
Cc1ncc(NC(=O)c2ccnc(C(C)(F)F)c2)cc1-c1cc(N2CCOCC2)c2nccn2n1 [Example 871, 2-(1,1-difluoroethyl)-N-(6-methyl-5-(8-morpholinoimidazo[1,2-b]pyridazin-6-yl)pyridin-3-yl)isonicotinamide]		0.6	
Cc1ccc(NC(=O)c2cc(C(C)(C)C#N)ccn2)cc1-c1cc(N2CCOCC2)c(=O)n(C)n1 [Example 910, 4-(2-cyanopropan-2-yl)-N-(4-methyl-3-(1-methyl-5-morpholino-6-oxo-1,6-dihydropyridazin-3-yl)phenyl)picolinamide]		5.09	
Cc1ccc(NC(=O)c2ccnc(C(C)(C)O)c2)cc1-c1cnc(OC(F)F)c(N2CCOCC2)c1 [Example 226, N-(3-(6-(difluoromethoxy)-5-morpholinopyridin-3-yl)-4-methylphenyl)-2-(2-hydroxypropan-2-yl)isonicotinamide]			IC50 (Table 2, 3 hours reaction): 1.9 nM
Cc1ccc(NC(=O)c2ccnc(C(C)(C)C#N)c2)cc1-c1cnc(OCCO)c(N2CCOCC2)c1 [Example 998, 2-(2-cyanopropan-2-yl)-N-(3-(6-(2-hydroxyethoxy)-5-morpholinopyridin-3-yl)-4-methylphenyl)isonicotinamide]		3	
Cc1ccc(NC(=O)c2cnnc(C(F)(F)F)c2)cc1-c1cc(NCCO)nc(N2CCOCC2)c1F [Example 1013, N-(3-(3-fluoro-6-((2-hydroxyethyl)amino)-2-morpholinopyridin-4-yl)-4-methylphenyl)-6-(trifluoromethyl)pyridazine-4-carboxamide]		9.79	
Cc1ncc(NC(=O)c2ccnc(C(C)(C)C#N)c2)cc1-c1cc(N2CCOCC2)nc(NC[C@H](C)O)n1 [Example 738, (S)-2-(2-cyanopropan-2-yl)-N-(5-(2-((2-hydroxypropyl)amino)-6-morpholinopyrimidin-4-yl)-6-methylpyridin-3-yl)isonicotinamide]	33.2		

Reference: patent publication US9694016B2 (Novartis AG, priority 2013, dated 2017)
